From patent US20100035877A1, “METHODS AND COMPOSITIONS FOR TREATING PATHOLOGIES ASSOCIATED WITH BDNF SIGNALING” (priority 2006, published 2010)

Experiments:
[1] = in vivo; cited from earlier work
[2] = test system: wildtype and Mecp2 null mice; assay: Whole-body plethysmography of respiratory function after CX546 treatment; type: in vivo, mouse; conditions: for effect on breathing frequency and minute volume/weight: CX546 40 mg/kg b.i.d. 3 days; for breathing frequency / Coefficient of variation of breathing frequency / minute volume/weight / tidal volume/weight: CX546 40 mg/kg i.p. b.i.d. 3 days; for breathing frequency: 18-24 h after last injection
Experimental: (§1) Beginning on P25, wildtype and Mecp2 null littermates were acclimatized to the injection protocol to reduce stress, first by handling for 10 min./day for 3 days, followed by saline injections (0.9% NaCl, i.p., b.i.d.) at 8:00 AM and 8:00 PM, for an additional 3 days. Subsequently, mice were assigned either to drug treatment (CX546, 40 mg/kg in 16.5% 2-hydroxypropyl-β-cyclodextrin, i.p., b.i.d.) or vehicle injections (cyclodextrin alone). On the day of their last injection, mice were trained in the plethysmograph recording chamber for one hour. Eighteen to 24 hours after their last injection, on P35, mice were returned to the chamber for recording of respiratory activity.
(§2) Breathing was recorded in unrestrained mice using a whole-body flow plethysmograph (Buxco II; Buxco Research Systems, Wilmington, N.C.) in which a constant bias flow supply connected to the animal recording chamber ensured continuous inflow of fresh air (1 L/min.). Ambient temperature was maintained between 23 and 25° C. Breathing traces were analyzed using Biosystem XA software (Buxco Research Systems). After the recording sessions, mice were euthanized with CO2 and tissue processed for BDNF immunoassay.
(§3) Wildtype and Mecp2 null littermates were treated for 3 days with CX546 (40 mg/kg in cyclodextrin, i.p., b.i.d.) or vehicle. Respiratory function was monitored by whole-body plethysmography 18-24 hours after the last injection, as described in Methods. At the end of the recording session the mice were sacrificed and the NG removed for BDNF ELISA. […] Treatment of wildtype mice with CX546 had no effect on NO BDNF content.

[3] = test system: BDNF protein in nodose ganglion (NG); assay: BDNF ELISA of intact nodose ganglion after in vivo CX546 treatment; parameters: species or system mouse; conditions: CX546 40 mg/kg i.p. b.i.d. 3 days; for NG BDNF content: mean±SEM, n=6
Experimental: as §1, §2
BDNF protein levels in intact NG or in cultured NG cells were measured by ELISA using the BDNF Emax Immunoassay System (Promega). Protein extracts from one intact NG or from an equivalent number of cultured cells were used for ELISA.
as §3

Row | Compound | half-life [1] | effect on breathing frequency and minute volume/weight ([2]; P35 Mecp2 null mice) | breathing frequency ([2]; P35 Mecp2 null mice, n=9) [breath/min.] | Coefficient of variation of breathing frequency ([2]; P35 Mecp2 null mice, n=9) [%] | minute volume/weight ([2]; P35 Mecp2 null mice, n=9) [mL/min/g] | tidal volume/weight ([2]; P35 Mecp2 null mice, n=9) [µL/g] | breathing frequency ([2]; P35 wildtype mice, n=7) [breath/min.] | Coefficient of variation of breathing frequency ([2]; P35 wildtype mice, n=7) [%] | minute volume/weight ([2]; P35 wildtype mice, n=7) [mL/min/g] | tidal volume/weight ([2]; P35 wildtype mice, n=7) [µL/g] | effect on breathing frequency and minute volume/weight ([2]; wildtype mice) | increase in BDNF protein content compared to vehicle-treated mutants ([3]; P35 Mecp2 null mice) [%] | NG BDNF content ([3]; P35 Mecp2 null mice) [pg BDNF/mL] | NG BDNF content ([3]; P35 wildtype mice) [pg BDNF/mL] | effect on NG BDNF content ([3]; wildtype mice) | BDNF protein compared to unstimulated controls (NG neurons)
1 | O=C(c1ccc2c(c1)OCCO2)N1CCCCC1 [CX546, 1-(1,4-benzodioxan-6-ylcarbonyl)piperidine] | less than an hour | completely restores wildtype frequency and minute volume/weight | 176±8 | 23.4±1.5 | 1.13 ± 0.07 | 6.5 ± 0.3 | 177±6 | 18.5±1.2 | 1.14 ± 0.09 | 6.4 ± 0.5 | no effect | 42 | 114±4 | 167±5 | no effect | 
2 | [Cl-].[K+] [KCI, potassium chloride] |  |  |  |  |  |  |  |  |  |  |  |  |  |  |  | significant increase
